The source of these data is patent US4082761A, “Triazolo[4,3-a][1,4]benzodiazepinium quaternary salts” (The Upjohn Company, priority 1973, dated 1978).

Holding throughout (type): in vivo
Experiment [1] relates to mice. Kind of experiment: Pedestal test (mice stay on the pedestal for more than 1 minute). The note with it: Mus musculus, ip, 1 min, intraperitoneal injection in mice, read-out: ED50 P (pedestal test). On the procedure:
(§1) Tranquilizing effects of the compounds of this invention are shown by the following tests in mice:
Pedestal test: The untreated mouse leaves a standard pedestal in less than a minute to climb back to the floor of the standard mouse box. Tranquilized mice will stay on the pedestal for more than 1 minute.

Experiment [2] deals with mice. Kind of experiment: Nicotine antagonism test (nicotine salicylate 2 mg./kg.). The note with it: Mus musculus, ip, intraperitoneal injection in mice, nicotine salicylate 2 mg./kg. thirty minutes later. On the procedure:
as §1
Nicotine antagonism test: Mice in a group of 6 are injected with the test compound. Thirty minutes later the mice including control (untreated) mice are injected with nicotine salicylate (2 mg./kg.). The control mice show overstimulation, i.e., (1) running convulsions followed by (2) tonic extensor fits; followed by (3) death.
Ni = nicotine antagonism (2) and (3) tests.

In experiment [3] the test system is mice. Kind of experiment: Dish test (mice remaining in the dish for more than 3 minutes). The note with it: Mus musculus, ip, 0.05 h; intraperitoneal injection in mice; 50% of the mice remain in the dish for more than 3 minutes; read-out: ED50 D (dish test). As for the experimental part:
as §1
Dish test: Mice in Petri dishes (10 cm. diameter, 5 cm. high, partially embedded in wood shavings), climb out in a very short time, when not treated. Mice remaining in the dish for more than 3 minutes indicates tranquilization. ED50 equals the dose of test compound at which 50% of the mice remain in the dish.

Experiment [4] relates to mice. Put plainly: Chimney test (mice fail to back up and out of a vertical glass cylinder within 30 seconds). The settings on record: Mus musculus, ip; intraperitoneal injection in mice; 50% of the mice failed to back out within 30 seconds; read-out: ED50 Ch (chimney test).
From the text: as §1
Chimney test: [Med. Exp. 4, 145 (1961)]: The test determines the ability of mice to back up and out of a vertical glass cylinder within 30 seconds. At the effective dosage, 50% of the mice failed doing it.

Setting [5] is: (2) tonic extensor fits, read-out: ED50 Ni(2) (nicotine antagonism (2) test).
The mark [6] stands for this setting: (3) death, read-out: ED50 Ni(3) (nicotine antagonism (3) test).

Where a name gives a salt, the structure may show the parent alone.

On to `Cc1n[n+](C)c2n1-c1ccc(Cl)cc1C(c1ccccc1)=NC2` [8-Chloro-1,3-dimethyl-6-phenyl-4H-s-triazolo[4,3-a][1,4]benzodiazepinium chloride sesquihydrate], for which the ED50 was 79 mg/kg in the experiment on mice [1]; 22 mg/kg in the experiment on mice [2] (setting [5]); 22 mg/kg in the experiment on mice [2] (setting [6]); 79 mg/kg in the experiment on mice [3]; 36 mg/kg in the experiment with mice [4].
For the molecule `C[n+]1nc([O-])n2c1CN=C(c1ccccc1Cl)c1cc(Cl)ccc1-2` [8-Chloro-6-(o-chlorophenyl)-1-hydroxy-3-methyl-4H-s-triazolo[4,3-a][1,4]benzodiazepinium hydroxide inner salt], the ED50 in the experiment on mice [1] is 3.2 mg/kg; with mice [2] (setting [5]), 0.3 mg/kg; in the experiment on mice [2] (setting [6]) it was 0.44 mg/kg; in the experiment with mice [3], 1.2 mg/kg; with mice [4], 1.6 mg/kg.

In general, ED50 refers to the midpoint of the dose-response relation.
